≈ marks a conversion by molar mass, not a printed value. Where two headings read alike, the source gives them in different places. Bridge positions count the residues as written; N and C are the ends. Peptide text beside a SMILES is read from it.
Key:
IDE = target: T1, IDE (Homo sapiens, UniProt P14735); assay: IDE activity assay, FAßB (amyloid ß-protein) degradation (fluorescence polarization); type: biochemical
T1 construct: made in house; host or cells: bacteria
T1 sequence (P14735 1-1019): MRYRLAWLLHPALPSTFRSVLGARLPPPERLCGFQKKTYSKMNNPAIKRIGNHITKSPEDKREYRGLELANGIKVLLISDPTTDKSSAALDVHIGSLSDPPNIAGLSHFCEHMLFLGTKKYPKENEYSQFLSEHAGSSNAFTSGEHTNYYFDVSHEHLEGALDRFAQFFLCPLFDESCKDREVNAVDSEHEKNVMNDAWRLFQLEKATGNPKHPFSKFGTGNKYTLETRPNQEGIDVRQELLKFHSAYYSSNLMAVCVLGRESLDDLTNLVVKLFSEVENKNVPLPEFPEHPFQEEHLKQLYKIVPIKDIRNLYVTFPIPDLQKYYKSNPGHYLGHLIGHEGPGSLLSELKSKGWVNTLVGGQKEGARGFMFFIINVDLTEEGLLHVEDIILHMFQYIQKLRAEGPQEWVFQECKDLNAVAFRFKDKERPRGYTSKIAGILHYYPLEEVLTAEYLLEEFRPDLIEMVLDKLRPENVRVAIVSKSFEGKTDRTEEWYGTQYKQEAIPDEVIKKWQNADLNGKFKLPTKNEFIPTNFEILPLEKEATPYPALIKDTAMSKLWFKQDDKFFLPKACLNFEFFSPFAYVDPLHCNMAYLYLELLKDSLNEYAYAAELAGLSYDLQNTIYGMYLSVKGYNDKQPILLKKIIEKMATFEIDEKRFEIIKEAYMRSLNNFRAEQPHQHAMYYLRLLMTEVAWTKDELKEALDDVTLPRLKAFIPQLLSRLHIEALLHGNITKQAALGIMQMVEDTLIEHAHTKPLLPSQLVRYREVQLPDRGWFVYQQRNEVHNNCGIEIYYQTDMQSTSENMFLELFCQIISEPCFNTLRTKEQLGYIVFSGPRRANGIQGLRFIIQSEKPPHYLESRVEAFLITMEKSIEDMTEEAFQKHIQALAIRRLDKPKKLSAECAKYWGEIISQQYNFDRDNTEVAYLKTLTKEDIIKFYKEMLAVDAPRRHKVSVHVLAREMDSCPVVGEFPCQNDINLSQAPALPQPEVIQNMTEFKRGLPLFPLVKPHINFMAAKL
Description: Taken together with the potency of all peptides against insulin (Table 1), we concluded that P12-3A represented the best inhibitor for further studies, and a highly purified, deliberately cyclized version (Fig 3A) was synthesized. […] Based on its potency, stability and selectivity for IDE, P12-3A was selected for use in downstream assays.
IDE activity was quantified by monitoring the degradation of Mca-[…](Dnp) (FRET1, 5 μM), fluoresceinated and biotinylated amyloid ß-protein (FAßB; 500 nM) or recombinant human insulin (50 nM) in PBS supplemented with 0.05% BSA. FRET1 degradation was measured by changes in fluorescence (λex = 340 nm, λem = 420 nm); FAßB degradation was monitored by fluorescence polarization (λex = 488 nm, λem = 525 nm), as described; and insulin degradation was quantified by ELISA. In vitro activity assays incorporated recombinant human IDE (1 nM) purified from bacteria. For quantitation of insulin degradation in primary murine skin fibroblasts, cells (1 x 10^5/well) were plated in 96-well plates and maintained in DMEM supplemented with 10% fetal bovine serum (FBS), 2mM glutamine, penicillin and streptomycin. After addition of insulin (10 nM or 100 nM), samples of conditioned medium were removed daily and quickly frozen, then insulin levels were quantified in parallel by ELISA according to manufacturer’s recommendations (Crystal Chem, Downers Grove, IL, USA). Assessment of the activity of P12-3A against a variety of matrix-metalloproteases was conducted using the Matrix Metalloproteinase (MMP) Inhibitor Profiling Kit, Fluorometric RED (Enzo Life Sciences, Inc., Farmingdale, NY, USA) according to manufacturer’s recommendations using the broad-spectrum MMP inhibitor, NNGH, as a positive control.

[1] = Solubility in assay medium and cell culture medium; type: physicochemical; conditions: cosmetic-grade P12-3A, read-out: soluble up to

remaining activity at 0.0005 µM (IDE; FAßB, P12-3A 0.0005 uM, Replicates 4-6, read-out: Percent Activity (normalized source data)): 103%
remaining activity at 0.0016 µM (IDE; FAßB, P12-3A 0.0016 uM, Replicates 4-6, read-out: Percent Activity (normalized source data)): 102%
remaining activity at 0.005 µM (IDE; FAßB, P12-3A 0.005 uM, Replicates 4-6, read-out: Percent Activity (normalized source data)): 103%
remaining activity at 0.016 µM (IDE; FAßB, P12-3A 0.016 uM, Replicates 4-6, read-out: Percent Activity (normalized source data)): 77.6%
remaining activity at 0.05 µM (IDE; FAßB, P12-3A 0.050 uM, Replicates 4-6, read-out: Percent Activity (normalized source data)): 88.7%
remaining activity at 0.12 µM (IDE; FAßB, P12-3A 0.12 uM, Replicates 1-3, read-out: Percent Activity (normalized source data)): 96.6%
remaining activity at 0.16 µM (IDE; FAßB, P12-3A 0.16 uM, Replicates 4-6, read-out: Percent Activity (normalized source data)): 93.1%
remaining activity at 0.24 µM (IDE; FAßB, P12-3A 0.24 uM, Replicates 1-3, read-out: Percent Activity (normalized source data)): 79.9%
remaining activity at 0.49 µM (IDE; FAßB, P12-3A 0.49 uM, Replicates 1-3, read-out: Percent Activity (normalized source data)): 73.7%
remaining activity at 0.5 µM (IDE; FAßB, P12-3A 0.50 uM, Replicates 4-6, read-out: Percent Activity (normalized source data)): 85.8%
remaining activity at 0.98 µM (IDE; FAßB, P12-3A 0.98 uM, Replicates 1-3, read-out: Percent Activity (normalized source data)): 66.9%
remaining activity at 1.6 µM (IDE; FAßB, P12-3A 1.6 uM, Replicates 4-6, read-out: Percent Activity (normalized source data)): 61.7%
remaining activity at 3.91 µM (IDE; FAßB, P12-3A 3.91 uM, Replicates 1-3, read-out: Percent Activity (normalized source data)): 48.4%
remaining activity at 5 µM (IDE; FAßB, P12-3A 5.0 uM, Replicates 4-6, read-out: Percent Activity (normalized source data)): 48.4%
remaining activity at 7.81 µM (IDE; FAßB, P12-3A 7.81 uM, Replicates 1-3, read-out: Percent Activity (normalized source data)): 43.4%
remaining activity at 15.6 µM (IDE; FAßB, P12-3A 15.6 uM, Replicates 1-3, read-out: Percent Activity (normalized source data)): 45.5%
remaining activity at 31.2 µM (IDE; FAßB, P12-3A 31.2 uM, Replicates 1-3, read-out: Percent Activity (normalized source data)): 38.5%
remaining activity at 62.5 µM (IDE; FAßB, P12-3A 62.5 uM, Replicates 1-3, read-out: Percent Activity (normalized source data)): 10.9%
remaining activity at 250 µM (IDE; FAßB, P12-3A 250 uM, Replicates 1-3, read-out: Percent Activity (normalized source data)): 9.54%
solubility ([1]; assay medium (PBS/0.05%BSA)): ~500 µM (≈ 715 µg/mL)
solubility ([1]; cell culture medium): ~100 µM (≈ 143 µg/mL)
SMILES: CC(C)C[C@H](NC(=O)[C@H](CO)NC(=O)[C@@H](N)CCC(N)=O)C(=O)N1CCC[C@H]1C(=O)N[C@@H](Cc1c[nH]c2ccccc12)C(=O)N[C@H]1CSSC[C@@H](C(=O)N[C@H](C(=O)N[C@H](C(N)=O)[C@@H](C)O)C(C)C)NC(=O)[C@H](Cc2c[nH]cn2)NC(=O)[C@@H]2CCCN2C(=O)[C@H](Cc2ccc(O)cc2)NC1=O [P12-3A] (H-QSLPWCYPHCVT-NH2; disulfide 6-10 (inferred))
inhibition of IDE in the selectivity panel (IDE; P12-3A 100 μM, S4 Fig): significant inhibition was observed exclusively for IDE
